Results published in paper PMC6119630 (Bioorganic & medicinal chemistry letters, 2018).
Blank lines part the entries; values can stand above or below the molecule they belong to.

Columns and labels:
[1] = tested on: PPARα target genes (Acadm, Cpt1a, Fabp3, Slc25a20); experiment: RT-PCR of PPARα target genes in 661W cells; format: cell-based, mouse; settings: 24 h treatment, n=6
hPPARα [2] = target: T1, hPPARα (Homo sapiens, UniProt Q07869); experiment: cell-based
T1 sequence (Q07869 1-468): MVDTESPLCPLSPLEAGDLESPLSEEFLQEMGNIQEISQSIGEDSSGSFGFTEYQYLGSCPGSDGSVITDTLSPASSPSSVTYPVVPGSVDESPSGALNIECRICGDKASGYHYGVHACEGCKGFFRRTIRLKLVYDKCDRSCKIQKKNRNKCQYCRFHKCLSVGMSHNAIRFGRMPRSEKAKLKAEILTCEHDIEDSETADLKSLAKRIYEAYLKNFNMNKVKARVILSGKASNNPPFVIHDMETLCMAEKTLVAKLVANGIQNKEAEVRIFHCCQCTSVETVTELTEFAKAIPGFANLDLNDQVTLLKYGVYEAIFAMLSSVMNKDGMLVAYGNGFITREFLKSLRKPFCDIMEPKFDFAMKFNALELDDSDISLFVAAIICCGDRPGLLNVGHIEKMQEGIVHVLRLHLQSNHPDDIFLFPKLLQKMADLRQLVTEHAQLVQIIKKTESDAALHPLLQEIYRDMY

PPARα [3] = experiment: Western blot analysis of PPARα expression in 661W cells; format: cell-based, mouse; settings: 24 h treatment
[4] = tested on: human retinal capillary endothelial cells (HRCEC); experiment: in vitro wound healing assay; format: cell-based; settings: 10 h and 24 h incubation
hPPARα [5] = target: T1, hPPARα; experiment: PPARα luciferase cell reporter assay; settings: for PPAR isoform selectivity profile: hPPARδ, hPPARγ luciferase cell-lines
PPARα [6] = settings: read-out: EC50 in biochemical PPARα assays; cited from earlier work
[7] = tested on: retinas of mice and diabetic rats; settings: cited from earlier work
type 2 diabetic patients = settings: FIELD and ACCORD; cited from earlier work

Structure (SMILES): Cc1c(Cl)ccc2c(C(=O)O)cc(-c3ccccc3)nc12 [Compound Y-0452, 7-chloro-8-methyl-2-phenylquinoline-4-carboxylic acid]
- EC50 (PPARα [6]): 25 to 50 µM
- toxicity in the retinas ([7]; mice and diabetic rats): without signs of toxicity
- effects in vivo against DR ([7]; retinas of mice and diabetic rats): protective effects in vivo against DR

Structure (SMILES): Cc1nc(-c2ccc(C(F)(F)F)cc2)sc1C(=O)NCc1ccc(OC(C)(C)C(=O)O)cc1 [GW590735, reference compound]
- cytotoxicity in reporter assay (hPPARα [5]; concentrations higher than 10 μM): observed cytotoxicity at higher concentrations

Structure (SMILES): CC(C)OC(=O)C(C)(C)Oc1ccc(C(=O)c2ccc(Cl)cc2)cc1 [fenofibrate]
- effects against diabetic macular edema (DME) and retinal NV (type 2 diabetic patients): robust protective effects

Second part, led by results:

- EC50 (hPPARα [2]): ~6 µM
Structure (SMILES): COc1ccc(COc2ccc(CNc3cccc(C(=O)O)c3)cc2)cc1 [Compound 10]
- expression of PPARα target genes (RT-PCR) [1]: induces the expression of various PPARα target genes
- PPARα expression (Western blot) (PPARα [3]): induced the expression of PPARα in a dose-dependent manner
- wound closure (cell migration) [4]: inhibits wound closure in a dose-dependent fashion

- PPAR isoform selectivity profile (hPPARα [5]; hPPARα): maintains the selectivity
Structure (SMILES): COc1ccc(COc2ccc(CNc3cccc(C(=O)O)c3)c(OCc3ccc(OC)cc3)c2)cc1 [Compound 26]

- PPAR isoform selectivity profile (hPPARα [5]; hPPARα): pan-agonist profile was maintained
- improvement in potency versus 22 (hPPARα [5]; hPPARα, compare 22 and 28): 10 fold
Structure (SMILES): COc1ccc(COc2ccc(CNc3cccc(OC(C)(C)C(=O)O)c3)c(OCc3ccc(OC)cc3)c2)cc1 [Compound 28]
